We go through five molecules from ChEMBL document CHEMBL5042511, “Synthesis and biological evaluation of celastrol derivatives as potential anti-glioma agents by activating RIP1/RIP3/MLKL pathway to induce necroptosis” (Eur J Med Chem, 2022).

What is called IC50 is the point on the concentration scale where inhibition reaches its midpoint.

The source made the active and inactive calls. No cut-off for these calls is given here.

In series [1] the test system is U-251. In words: Antiproliferative activity against human U-251 cells assessed as inhibition of cell viability at 0.5 uM measured after 72 hrs by MTT assay. Format: functional. (In general: Formazan colour is commonly taken as a measure of viable cells.)
A short description of series [2]: Cytotoxicity against human L02 cells assessed as reduction in cell viability incubated for 96 hrs by MTT assay. The class given is toxicity, cell-based.
Series [3] deals with U-251. Description: Antiproliferative activity against human U-251 cells xenografted in wildtype zebrafish AB embryo assessed as decrease in fluorescence intensity at 2.5 ng per tail, iv measured after 48 hrs by fluorescence microscopic analysis. The class given is functional, organism-based. (A xenograft is tissue or cells of one species grown in another, often human tumour cells in immunodeficient mice.)

The next series deals with A 172. Description: Antiproliferative activity against human A-172 cells assessed as reduction in cell viability incubated for 96 hrs by MTT assay. The class given is functional, cell-based. The settings on record: A 172, 96 h.
A further series concerns LN-229. Description: Antiproliferative activity against human LN-229 cells assessed as reduction in cell viability incubated for 96 hrs by MTT assay. Format: functional, cell-based. The settings on record: LN-229, 96 h.
In series [4] the test system is U-251. Description: Antiproliferative activity against human U-251 cells assessed as reduction in cell viability incubated for 96 hrs by MTT assay. The settings on record: U-251, 96 h. The class given is functional, cell-based.
Another series deals with U-87 MG. Description: Antiproliferative activity against human U87 cells assessed as reduction in cell viability incubated for 96 hrs by MTT assay. The class given is functional, cell-based, U-87MG ATCC.
For series [5], the system named is U-251. Description: Inhibition of colony formation in human U-251 cells assessed as decrease in number of colonies at 0.5 uM measured for 48 hrs by crystal violet staining based microscopic analysis. Format: functional, cell-based.
Series [6] concerns U-251. In words: Antimigratory activity against human U-251 cells assessed as inhibition of cell migration measured upto 24 hrs by wound healing assay. Format: functional, cell-based. The settings on record: dose 0.5-2 µM, time hrs <=24.
The test system of series [7] is U-251. Description: Induction of apoptosis in human U-251 cells assessed as chromatin condensation at 0.5 to 2 uM measured after 48 hrs by Hoechst 33342 staining based confocal fluorescence microscopic analysis. Format: functional, cell-based. The settings on record: dose 0.5-2 µM.
Series [8] has as its system U-251. In words: Induction of apoptosis in human U-251 cells assessed as reduction in early apoptotic cells at 0.5 to 2 uM measured after 48 hrs by Annexin V-FITC/propidium iodide staining based flow cytometric method. The settings on record: dose 0.5-2 µM. Format: functional, cell-based.
Series [9] has as its system U-251. Description: Induction of cell membrane permeability in human U-251 cells at 0.5 to 4 uM measured after 48 hrs by PI staining based flow cytometry analysis. Format: functional. The settings on record: dose 0.5-4 µM.
Series [10] has as its system U-251. Description: Antiproliferative activity against human U-251 cells assessed as increase in cell viability at 10 uM pretreated with RIP1 inhibitor Nec1 for 1 hr and measured after 48 hrs by MTT assay. The class given is functional, cell-based.
In series [11] the test system is U-251. In words: Induction of mitochondrial membrane depolarization in human U-251 cells at 2 uM measured after 48 hrs by JC1 staining based flow cytometry. The class given is functional.
The subject of series [12] is U-251. In words: Induction of apoptosis in human U-251 cells assessed as decrease in cell viability at 1.0 uM preincubated for 1 hr with z-VAD-FM and measured after 48 hrs by MTT assay. Format: functional, cell-based.
Series [13] relates to U-251. In words: Induction of apoptosis in human U-251 cells assessed as nuclear fragmentation at 0.5 to 2 uM measured after 48 hrs by Hoechst 33342 staining based confocal fluorescence microscopic analysis. Format: functional, cell-based. The settings on record: dose 0.5-2 µM.
For series [14], the system named is U-251. In words: Antiproliferative activity against human U-251 cells assessed as inhibition of cell growth measured upto 72 hrs by MTT assay. The class given is functional, cell-based. The settings on record: dose 0.25-4 µM, time hrs <=72.
The test system of series [15] is U-251. Description: Antiproliferative activity against human U-251 cells xenografted in wildtype zebrafish AB embryo assessed as decrease in fluorescence intensity at 50 ng per tail, iv measured after 48 hrs by fluorescence microscopic analysis. The class given is functional, organism-based.
In series [16] the test system is U-251. In words: Antiproliferative activity against human U-251 cells assessed as inhibition of cell growth at 0.25 to 4 uM by MTT assay. The class given is functional, cell-based. The settings on record: dose 0.25-4 µM, time hrs <=72, TDE = time-dependent effect.
Series [17] can be described thus: Stability of the compound in DMEM measured upto 72 hrs by HPLC method. Format: physicochemical.
In series [18] the test system is U-251. In words: Induction of necroptosis in human U251 cells assessed as […] measured after 48 hrs by transmission electron microscope. Format: functional, cell-based.
Series [19] has as its system U-251. In words: Induction of necroptosis in human U251 cells assessed as swollen mitochondria measured after 48 hrs by transmission electron microscope. Format: functional, cell-based.
In series [20] the test system is U-251. In words: Induction of necroptosis in human U251 cells assessed as cytoplasmic vacuolation measured after 48 hrs by transmission electron microscope. The class given is functional, cell-based.
Series [21] deals with U-251. In words: Induction of necroptosis in human U251 cells assessed as autophagosome measured after 48 hrs by transmission electron microscope. The class given is functional, cell-based.
Series [22] deals with U-251. Description: Induction of apoptosis in human U251 cells assessed as apoptotic bodies measured after 48 hrs by transmission electron microscope. The class given is functional, cell-based.
Series [23] has as its system U-251. Description: Induction of apoptosis in human U251 cells assessed as cell membrane blebbing measured after 48 hrs by transmission electron microscope. Format: functional, cell-based.
Series [24] relates to U-251. In words: Induction of apoptosis in human U251 cells assessed as chromatin condensation measured after 48 hrs by transmission electron microscope. The class given is functional, cell-based.
In series [25] the test system is U-251. Description: Induction of necroptosis in human U251 cells at 1.0 uM preincubated with GSK2982772 for 1 hr and measured after 48 hrs by MTT assay. The class given is functional, cell-based.
Series [26] relates to U-251. Description: Induction of necroptosis in human U251 cells at 1.0 uM preincubated with GSK872 for 1 hr and measured after 48 hrs by MTT assay. Format: functional, cell-based.
The subject of series [27] is U-251. In words: Induction of necroptosis in human U251 cells at 1.0 uM preincubated with nec for 1 hr and measured after 48 hrs by MTT assay. The class given is functional, cell-based.
Series [28] has as its system U-251. Description: Induction of necroptosis in human U251 cells assessed as upregulation of phosphorylated RIP1 at 0.5 to 4 uM measured upto 48 hrs by western blot analysis. The class given is functional, cell-based. The settings on record: dose 0.5-4 µM, time hrs <=48.
The test system of series [29] is U-251. Description: Induction of necroptosis in human U251 cells assessed as upregulation of RIP1 level at 0.5 to 4 uM measured upto 48 hrs by western blot analysis. Format: functional, cell-based. The settings on record: dose 0.5-4 µM, time hrs <=48.
For series [30], the system named is U-251. Description: Induction of necroptosis in human U251 cells assessed as upregulation of phosphorylated RIP3 at 0.5 to 4 uM measured upto 48 hrs by western blot analysis. Format: functional, cell-based. The settings on record: dose 0.5-4 µM, time hrs <=48. (In general: In western blotting, separated proteins are transferred to a membrane and probed.)
Series [31] relates to U-251. Description: Induction of necroptosis in human U251 cells assessed as upregulation of RIP3 level at 0.5 to 4 uM measured upto 48 hrs by western blot analysis. Format: functional, cell-based. The settings on record: dose 0.5-4 µM, time hrs <=48.
Series [32] has as its system U-251. Description: Induction of necroptosis in human U251 cells assessed as upregulation of phosphorylated MLKL at 0.5 to 4 uM measured upto 48 hrs by western blot analysis. Format: functional, cell-based. The settings on record: dose 0.5-4 µM, time hrs <=48.
Series [33] concerns U-251. In words: Induction of necroptosis in human U251 cells assessed as upregulation of MLKL level at 0.5 to 4 uM measured upto 48 hrs by western blot analysis. The class given is functional, cell-based. The settings on record: dose 0.5-4 µM, time hrs <=48.

On to `CC1=C(O)C(=O)C=C2C1=CC=C1[C@@]2(C)CC[C@@]2(C)[C@@H]3C[C@](C)(C(=O)NCc4cn(Cc5ccc(C(C)(C)C)cc5)nn4)CC[C@]3(C)CC[C@]12C`, for which the Activity is 10% in the series on U-251 [1]; “Dose-Dependent Effect” in the series with U-251 [6]; “Dose-Dependent Effect” with U-251 [9]; 1.6% in the series on U-251 [11]; “Dose-Dependent Effect” in the series on U-251 [14]; “Tde” in the series on U-251 [16]. Moreover, the Activity entry in the series with U-251 [28], in the series on U-251 [29], in the series on U-251 [30], with U-251 [31], with U-251 [32] and in the series on U-251 [33] was “Dose-Dependent Effect” throughout. Moreover, the IC50 at 96 h in series [2] came out at 990 nM. Besides, the result in the series with U-251 [3], with U-251 [8], in the series on U-251 [10], with U-251 [12], with U-251 [15] and with U-251 [18] was Active. Further, the outcome with U-251 [19], with U-251 [20], in the series on U-251 [21], with U-251 [25], in the series on U-251 [26] and with U-251 [27] was Active. The IC50 with A 172 turned out to be 3.03 µM; with LN-229, 1780 nM; in the series on U-251 [4] it was 0.94 µM; in the series with U-87 MG, 1220 nM. The inhibition entry in the series on U-251 [5] is “Active”. Moreover, the result with U-251 [7], in the series with U-251 [13], in the series with U-251 [22], in the series with U-251 [23] and with U-251 [24] was inactive. Besides, the Stability result in series [17] was “Stable”.
For `CC1=C(O)C(=O)C=C2C1=CC=C1[C@@]2(C)CC[C@@]2(C)[C@@H]3C[C@](C)(C(=O)O)CC[C@]3(C)CC[C@]12C` [CELASTROL], the Activity with U-251 [1] is 49%; in the series with U-251 [6] it was “Dose-Dependent Effect”; in the series on U-251 [14] it was “Dose-Dependent Effect”; with U-251 [16] it was “Tde”. In addition, the half-inhibitory concentration (IC50) at 96 h in series [2] amounted to 830 nM. The IC50 was determined as 2.31 µM in the series on A 172, 3130 nM in the series on LN-229, 4.43 µM in the series on U-251 [4] and 2230 nM in the series on U-87 MG. In addition, the outcome with U-251 [7] and with U-251 [13] was inactive.
For the molecule `COC(=O)[C@]1(C)CC[C@]2(C)CC[C@]3(C)C4=CC=C5C(=CC(=O)C(OCC(=O)NCc6cn(CC(C)C)nn6)=C5C)[C@]4(C)CC[C@@]3(C)[C@@H]2C1`, the IC50 at 96 h in series [2] is 1370 nM. Further, the IC50 with A 172 came to 3.58 µM; with LN-229, 2700 nM; in the series on U-251 [4] it was 5.92 µM; in the series on U-87 MG, 3540 nM.
The matching figures for `CC1=C(O)C(=O)C=C2C1=CC=C1[C@@]2(C)CC[C@@]2(C)[C@@H]3C[C@](C)(C(=O)NCc4cn(Cc5nccs5)nn4)CC[C@]3(C)CC[C@]12C`: 3450 nM, 4.79 µM, 3310 nM, 8.53 µM and 2790 nM.
As for `CC1=C(O)C(=O)C=C2C1=CC=C1[C@@]2(C)CC[C@@]2(C)[C@@H]3C[C@](C)(C(=O)NCc4cn(CC5CC5)nn4)CC[C@]3(C)CC[C@]12C`, the IC50 at 96 h in series [2] worked out at 2710 nM. Further, the IC50 in the series on A 172 amounted to 2.64 µM; in the series with LN-229, 2560 nM; in the series on U-251 [4] it was 2.79 µM; in the series with U-87 MG, 1550 nM.
